Test results taken from ChEMBL document CHEMBL5154936, “Scaffold Hopping Strategy to Identify Prostanoid EP4 Receptor Antagonists for Cancer Immunotherapy” (J Med Chem, 2022).
≈ marks a conversion by molar mass, not a printed value.

Columns and labels:
[1] = Kinetic solubility of compound in simulated gastric fluid at pH 1.2 measured after 24 hrs by HPLC analysis; type: physicochemical; conditions: read-out: Kinetic_solubility
CT26 [2] = test: Antitumor activity against mouse CT26 cells allografted in BALB/c mouse assessed as median survival period at 75 mg/kg, po administered once a day for 14 days in presence of anti-PD-1 antibody by Kaplan-Meier method (reference value: 15 days); type: functional; conditions: time 14 day
CYP2D6 = CYP2D6 (Homo sapiens, UniProt P10635); test: Inhibition of CYP2D6 (unknown origin) at 20 uM; type: ADME
Chain of CYP2D6 (P10635 whole entry): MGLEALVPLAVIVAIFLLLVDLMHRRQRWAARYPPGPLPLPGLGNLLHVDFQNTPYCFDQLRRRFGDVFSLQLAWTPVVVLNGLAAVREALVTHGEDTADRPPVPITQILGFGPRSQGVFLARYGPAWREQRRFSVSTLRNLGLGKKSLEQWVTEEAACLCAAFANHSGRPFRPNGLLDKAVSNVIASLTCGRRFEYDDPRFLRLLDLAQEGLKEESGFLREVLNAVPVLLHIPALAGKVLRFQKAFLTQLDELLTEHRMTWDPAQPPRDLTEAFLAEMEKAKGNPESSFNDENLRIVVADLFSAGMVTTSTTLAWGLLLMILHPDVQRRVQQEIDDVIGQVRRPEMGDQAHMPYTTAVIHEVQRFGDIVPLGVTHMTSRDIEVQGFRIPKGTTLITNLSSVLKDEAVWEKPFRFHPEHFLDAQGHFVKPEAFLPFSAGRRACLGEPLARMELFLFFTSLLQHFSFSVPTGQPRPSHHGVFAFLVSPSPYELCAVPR

CT26 [3] = test: Antitumor activity against mouse CT26 cells allografted in BALB/c mouse assessed as median survival period at 75 mg/kg, po administered once a day for 14 days by Kaplan-Meier method (reference value: 15 days); type: functional; conditions: time 14 day
[4] = Toxicity in BALB/c mouse allografted with mouse CT26 cells assessed as change in body weight at 75 mg/kg, po administered once a day measured after 14 days; type: organism-based; conditions: in vivo, 336 h, time 14 day
CYP2C9 = CYP2C9 (Homo sapiens, UniProt P11712); test: Inhibition of CYP2C9 (unknown origin) at 20 uM; type: ADME
Chain of CYP2C9 (P11712 whole entry): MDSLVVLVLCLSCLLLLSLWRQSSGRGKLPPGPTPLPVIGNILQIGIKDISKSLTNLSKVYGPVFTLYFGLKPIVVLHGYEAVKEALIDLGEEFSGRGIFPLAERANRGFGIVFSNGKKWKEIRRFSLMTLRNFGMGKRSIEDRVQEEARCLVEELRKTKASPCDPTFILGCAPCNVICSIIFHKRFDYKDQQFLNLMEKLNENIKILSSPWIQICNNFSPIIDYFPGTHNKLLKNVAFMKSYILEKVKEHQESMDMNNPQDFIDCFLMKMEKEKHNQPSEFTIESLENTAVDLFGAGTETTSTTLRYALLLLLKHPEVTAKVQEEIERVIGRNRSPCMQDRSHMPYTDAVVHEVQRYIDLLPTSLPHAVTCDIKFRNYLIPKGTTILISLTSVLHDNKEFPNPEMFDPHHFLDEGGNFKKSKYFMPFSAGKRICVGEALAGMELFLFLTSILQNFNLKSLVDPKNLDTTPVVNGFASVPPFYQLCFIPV

[5] = biological target: Prostaglandin E2 receptor EP4 subtype (Mus musculus, UniProt P32240); test: Antagonist activity at mouse EP4 receptor transfected in CHO/Galpha16 cells preincubated for 15 mins followed by PGE2 addition by calcium flux assay; type: functional, cell-based
Chain of Prostaglandin E2 receptor EP4 subtype (Mus musculus, UniProt P32240) (P32240 whole entry): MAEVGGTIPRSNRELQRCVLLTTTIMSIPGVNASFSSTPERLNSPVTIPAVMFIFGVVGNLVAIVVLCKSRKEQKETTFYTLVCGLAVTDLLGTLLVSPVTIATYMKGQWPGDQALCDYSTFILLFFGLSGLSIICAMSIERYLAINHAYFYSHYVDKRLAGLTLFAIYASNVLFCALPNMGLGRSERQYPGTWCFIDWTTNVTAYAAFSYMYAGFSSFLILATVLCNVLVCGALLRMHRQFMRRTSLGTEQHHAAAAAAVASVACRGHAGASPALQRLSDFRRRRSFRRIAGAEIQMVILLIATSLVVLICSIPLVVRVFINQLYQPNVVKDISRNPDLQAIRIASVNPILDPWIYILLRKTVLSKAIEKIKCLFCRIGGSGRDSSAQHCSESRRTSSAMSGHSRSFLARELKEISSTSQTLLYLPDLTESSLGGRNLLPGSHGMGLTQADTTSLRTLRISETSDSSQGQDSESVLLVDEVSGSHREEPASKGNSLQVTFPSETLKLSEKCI

[6] = Toxicity in BALB/c mouse allografted with mouse CT26 cells assessed as change in body weight at 75 mg/kg, po administered once a day for 14 days in presence of anti-PD-1 antibody; type: organism-based; conditions: in vivo, 336 h, time 14 day
[7] = biological target: Prostaglandin E2 receptor EP2 subtype (Homo sapiens, UniProt P43116); test: Antagonist activity at human EP2 receptor transfected in CHO/Galpha16 cells preincubated for 15 mins followed by PGE2 addition by calcium flux assay; type: functional, cell-based
Chain of Prostaglandin E2 receptor EP2 subtype (P43116 whole entry): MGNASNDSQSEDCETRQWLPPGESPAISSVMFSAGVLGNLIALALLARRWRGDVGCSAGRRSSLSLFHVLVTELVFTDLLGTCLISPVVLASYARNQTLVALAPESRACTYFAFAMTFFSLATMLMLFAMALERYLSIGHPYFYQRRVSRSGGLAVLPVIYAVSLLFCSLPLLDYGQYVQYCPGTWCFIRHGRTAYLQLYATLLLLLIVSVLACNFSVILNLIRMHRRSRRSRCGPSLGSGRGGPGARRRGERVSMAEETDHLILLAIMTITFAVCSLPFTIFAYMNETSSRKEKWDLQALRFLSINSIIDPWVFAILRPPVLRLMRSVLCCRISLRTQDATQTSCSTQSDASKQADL

[8] = Half life in BALB/c mouse at 1 mg/kg, iv measured upto 24 hrs by LC-MS/MS analysis; type: ADME, organism-based; conditions: in vivo
[9] = Metabolic stability in human liver microsomes assessed as intrinsic clearance; type: ADME, Microsome; conditions: read-out: CLH
[10] = Metabolic stability in mouse liver microsomes assessed as half life; type: ADME, Microsome
[11] = Metabolic stability in human liver microsomes assessed as half life; type: ADME, Microsome
[12] = AUC (0 to 24 hrs) in BALB/c mouse at 1 mg/kg, iv measured upto 24 hrs by LC-MS/MS analysis; type: ADME, organism-based; design: dose 1 mg/kg, time < 24 hrs, route iv; conditions: in vivo
[13] = Half life in BALB/c mouse at 5 mg/kg, po measured upto 24 hrs by LC-MS/MS analysis; type: ADME, organism-based; conditions: in vivo
[14] = Clearance in BALB/c mouse at 1 mg/kg, iv measured upto 24 hrs by LC-MS/MS analysis; type: ADME, organism-based; conditions: in vivo
CT26 [15] = test: Cytotoxicity against mouse CT26 cells assessed as reduction in cell viability incubated for 72 hrs by CCK-8 assay; conditions: CT26, 72 h
EMT6 = test: Cytotoxicity against mouse EMT6 cells assessed as reduction in cell viability incubated for 72 hrs by CCK-8 assay; conditions: EMT6, 72 h
[16] = biological target: Prostaglandin E2 receptor EP4 subtype (Homo sapiens, UniProt P35408); test: Antagonist activity at human EP4 receptor transfected in CHO/Galpha16 cells preincubated for 15 mins followed by PGE2 addition by calcium flux assay; type: functional, cell-based
Chain of Prostaglandin E2 receptor EP4 subtype (Homo sapiens, UniProt P35408) (P35408 whole entry): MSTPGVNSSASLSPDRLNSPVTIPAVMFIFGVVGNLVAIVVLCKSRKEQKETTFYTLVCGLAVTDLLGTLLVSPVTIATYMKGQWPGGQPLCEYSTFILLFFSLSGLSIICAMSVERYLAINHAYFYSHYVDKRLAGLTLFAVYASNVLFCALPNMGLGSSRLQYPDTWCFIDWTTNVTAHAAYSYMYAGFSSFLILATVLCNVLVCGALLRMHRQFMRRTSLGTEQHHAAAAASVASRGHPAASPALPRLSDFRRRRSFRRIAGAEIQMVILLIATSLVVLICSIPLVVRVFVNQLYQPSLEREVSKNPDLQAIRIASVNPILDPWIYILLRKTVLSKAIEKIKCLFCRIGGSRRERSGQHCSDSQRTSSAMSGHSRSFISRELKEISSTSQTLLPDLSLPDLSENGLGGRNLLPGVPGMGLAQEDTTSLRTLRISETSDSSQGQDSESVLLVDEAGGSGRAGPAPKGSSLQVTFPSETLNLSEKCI

Panc02 = test: Cytotoxicity against mouse Panc02 cells assessed as reduction in cell viability incubated for 72 hrs by CCK-8 assay; conditions: Panc02, 72 h
3LL cell line = test: Cytotoxicity against mouse 3LL cells assessed as reduction in cell viability incubated for 72 hrs by CCK-8 assay
[17] = Cytotoxicity against HEK293 cells assessed as reduction in cell viability incubated for 72 hrs by CCK-8 assay; type: toxicity, cell-based; conditions: human

With O=C(O)c1ccc(CNC(=O)c2c(Cc3ccc(F)cc3)sc3c2CCOC3)cc1 the solubility kinetic at 24 h [1] was 2.97 µM (≈ 1.26 µg/mL), the MST (CT26 [2]) was 41 days and the inhibition at 20 µM (CYP2D6) was 65%. For the same compound, the MST (CT26 [3]) was 26 days, the Activity [4] was “Non-Toxic” and the inhibition at 20 µM (CYP2C9) was 44%. The IC50 [5] was 0.0243 µM, the Activity [6] was “Non-Toxic” and the IC50 [7] was over 10 µM. It also gave a half-life [8] of 3.2 h, a microsomal CLint [9] of under 9.6 µL/min/mg and a half-life [10] of over 2.42 h. It also gave a half-life [11] of over 2.42 h, an AUC(0-t) at 24 h [12] of 684 ng·h/mL and a half-life [13] of 6.2 h. The clearance [14] was 22.7 mL/min/kg.

C[C@H](NC(=O)c1c(Cc2cccc(C(F)(F)F)c2)sc2c1CCOC2)c1ccc(C(=O)O)cc1 gave a solubility kinetic at 24 h [1] of under 1 µM, an IC50 (CT26 [15]) of over 100 µM and an inhibition at 20 µM (CYP2D6) of 72%. The IC50 (EMT6) was over 100 µM, the IC50 [16] was 0.0017 µM and the IC50 (Panc02) was over 100 µM. The inhibition at 20 µM (CYP2C9) was 27%, the IC50 [5] was 0.0028 µM and the IC50 (3LL cell line) was over 100 µM. The IC50 [7] was over 10 µM, the IC50 at 72 h [17] was over 100 µM and the half-life [8] was 3.4 h. The microsomal CLint [9] was under 9.6 µL/min/mg, the half-life [10] was over 2.42 h and the half-life [11] was over 2.42 h. It also gave an AUC(0-t) at 24 h [12] of 642 ng·h/mL, a half-life [13] of 3.5 h and a clearance [14] of 24.6 mL/min/kg.
